In patent US7034035B2, “Fungicidal mono-, bi-, and tri-cycloheteroalkyl amides and their compositions, methods of use and preparation” (priority 1999, dated 2006):

What was measured:
[1] = test system: Rhizoctonia solani (RHIZSO); experiment: microbe, parasite or virus in culture; format: cell-based
Ustilago maydis (USTIMA) = experiment: microbe, parasite or virus in culture; format: cell-based
Also: test concentration or dose not given here.

Row | SMILES | RHIZSO in vitro Growth Inhibition [1] | USTIMA in vitro Growth Inhibition (Ustilago maydis (USTIMA))
1 | COc1ccnc(C(=O)NCC2COCCOCCOCCOCCO2)c1O (stereo not shown) [Compound 245] | − (key: +: at least 80% growth inhibition; −: less than 80% growth inhibition) | − (key: +: at least 80% growth inhibition; −: less than 80% growth inhibition)
2 | COc1ccnc(C(=O)N[C@H]2[C@@H](OC(C)=O)O[C@H](COC(C)=O)[C@@H](OC(C)=O)[C@@H]2OC(C)=O)c1O [Compound 335] | − (key: +: at least 80% growth inhibition; −: less than 80% growth inhibition) | − (key: +: at least 80% growth inhibition; −: less than 80% growth inhibition)
3 | CC1(C)CC(NC(=O)c2ncccc2O)CC(C)(C)C1=O [Compound 205] | − (key: +: at least 80% growth inhibition; −: less than 80% growth inhibition) | − (key: +: at least 80% growth inhibition; −: less than 80% growth inhibition)
4 | COc1ccnc(C(=O)NC2CCCCCCC2)c1O [Compound 282] | − (key: +: at least 80% growth inhibition; −: less than 80% growth inhibition) | − (key: +: at least 80% growth inhibition; −: less than 80% growth inhibition)
5 | COc1ccnc(C(=O)NC2C3(C)CCC(C3)C2(C)C)c1O (stereo not shown) [Compound 288] | + (key: +: at least 80% growth inhibition; −: less than 80% growth inhibition) | − (key: +: at least 80% growth inhibition; −: less than 80% growth inhibition)
6 | Cc1ccnc(C(=O)NC2CC(C)(C)CC(C)(C)C2)c1O [Compound 236] | − (key: +: at least 80% growth inhibition; −: less than 80% growth inhibition) | − (key: +: at least 80% growth inhibition; −: less than 80% growth inhibition)
7 | COc1ccc(CNC(=O)c2ncccc2O)cc1 [Compound 226] | − (key: +: at least 80% growth inhibition; −: less than 80% growth inhibition) | − (key: +: at least 80% growth inhibition; −: less than 80% growth inhibition)
8 | COc1ccnc(C(=O)NC2CC(C)(C)C=CC=C2C)c1O (stereo not shown) [Compound 278] | − (key: +: at least 80% growth inhibition; −: less than 80% growth inhibition) | − (key: +: at least 80% growth inhibition; −: less than 80% growth inhibition)
9 | COc1ccnc(C(=O)NC2CCC(Sc3ccccc3)CC2)c1O (stereo not shown) [Compound 275] | + (key: +: at least 80% growth inhibition; −: less than 80% growth inhibition) | − (key: +: at least 80% growth inhibition; −: less than 80% growth inhibition)
10 | COc1ccnc(C(=O)NC2CC(c3ccco3)CC(C)(C)C2)c1O (stereo not shown) [Compound 258] | − (key: +: at least 80% growth inhibition; −: less than 80% growth inhibition) | − (key: +: at least 80% growth inhibition; −: less than 80% growth inhibition)
11 | O=C(NCc1ccccc1Cl)c1ncccc1O [Compound 218] | + (key: +: at least 80% growth inhibition; −: less than 80% growth inhibition) | + (key: +: at least 80% growth inhibition; −: less than 80% growth inhibition)
12 | O=C(NC1CCC(O)CC1)c1ncccc1O (stereo not shown) [Compound 208] | − (key: +: at least 80% growth inhibition; −: less than 80% growth inhibition) | − (key: +: at least 80% growth inhibition; −: less than 80% growth inhibition)
13 | COc1ccnc(C(=O)N[C@H]2CC3OC2[C@H](C)[C@@H](OCc2ccccc2)[C@H]3C)c1O (stereo partly shown) [Compound 321] | − (key: +: at least 80% growth inhibition; −: less than 80% growth inhibition) | − (key: +: at least 80% growth inhibition; −: less than 80% growth inhibition)
14 | CC1(C)CC(NC(=O)c2ncccc2O)CC(C)(C2CC2)C1 (stereo not shown) [Compound 204] | − (key: +: at least 80% growth inhibition; −: less than 80% growth inhibition) | − (key: +: at least 80% growth inhibition; −: less than 80% growth inhibition)
15 | COc1ccnc(C(=O)NC2CC(C)(C)C(OC)C(C)(C)C2)c1O (stereo not shown) [Compound 265] | − (key: +: at least 80% growth inhibition; −: less than 80% growth inhibition) | − (key: +: at least 80% growth inhibition; −: less than 80% growth inhibition)
16 | COc1cc(NC(=O)c2ncccc2O)cc(OC)c1 [Compound 216] | − (key: +: at least 80% growth inhibition; −: less than 80% growth inhibition) | − (key: +: at least 80% growth inhibition; −: less than 80% growth inhibition)
17 | COc1ccnc(C(=O)NCCCc2cccnc2)c1O [Compound 243] | − (key: +: at least 80% growth inhibition; −: less than 80% growth inhibition) | − (key: +: at least 80% growth inhibition; −: less than 80% growth inhibition)
18 | COc1ccnc(C(=O)NCC#CCCl)c1O [Compound 239] | − (key: +: at least 80% growth inhibition; −: less than 80% growth inhibition) | − (key: +: at least 80% growth inhibition; −: less than 80% growth inhibition)

Row | SMILES | RHIZSO in vitro Growth Inhibition [1] | USTIMA in vitro Growth Inhibition (Ustilago maydis (USTIMA))
19 | Cc1cccc(CNC(=O)c2ncccc2O)c1 [Compound 222] | − (key: +: at least 80% growth inhibition; −: less than 80% growth inhibition) | − (key: +: at least 80% growth inhibition; −: less than 80% growth inhibition)
20 | CCCO[C@@H]1[C@@H](OCCC)[C@H](OCCC)CO[C@H]1NC(=O)c1nccc(OC)c1O [Compound 331] | − (key: +: at least 80% growth inhibition; −: less than 80% growth inhibition) | − (key: +: at least 80% growth inhibition; −: less than 80% growth inhibition)
21 | COc1ccnc(C(=O)NC2CCc3ccccc3C2=O)c1O (stereo not shown) [Compound 285] | + (key: +: at least 80% growth inhibition; −: less than 80% growth inhibition) | − (key: +: at least 80% growth inhibition; −: less than 80% growth inhibition)
22 | COc1ccnc(C(=O)NC2CC(C)(C)C=CC(C)C2C)c1O (stereo not shown) [Compound 279] | − (key: +: at least 80% growth inhibition; −: less than 80% growth inhibition) | − (key: +: at least 80% growth inhibition; −: less than 80% growth inhibition)
23 | C[C@@H](NC(=O)c1ncccc1O)c1cccc2ccccc12 [Compound 231] | − (key: +: at least 80% growth inhibition; −: less than 80% growth inhibition) | − (key: +: at least 80% growth inhibition; −: less than 80% growth inhibition)
24 | COCCCc1ccc2c(c1)OC(C)C(NC(=O)c1nccc(OC)c1O)C2=O (stereo not shown) [Compound 322] | + (key: +: at least 80% growth inhibition; −: less than 80% growth inhibition) | − (key: +: at least 80% growth inhibition; −: less than 80% growth inhibition)
25 | O=C(NCc1cccc(Cl)c1)c1ncccc1O [Compound 219] | + (key: +: at least 80% growth inhibition; −: less than 80% growth inhibition) | + (key: +: at least 80% growth inhibition; −: less than 80% growth inhibition)
26 | COc1ccnc(C(=O)N[C@H]2C(O)[C@@H]3CC[C@H]2[C@@H]2CCCC[C@@H]23)c1O (stereo partly shown) [Compound 293] | − (key: +: at least 80% growth inhibition; −: less than 80% growth inhibition) | − (key: +: at least 80% growth inhibition; −: less than 80% growth inhibition)
27 | COc1ccnc(C(=O)NC2CC(C)(C)CC(C)(C(=O)c3ccccc3)C2)c1O (stereo not shown) [Compound 260] | − (key: +: at least 80% growth inhibition; −: less than 80% growth inhibition) | − (key: +: at least 80% growth inhibition; −: less than 80% growth inhibition)
28 | O=C(OC1CCC(NC(=O)c2ncccc2O)CC1)c1ccccc1 (stereo not shown) [Compound 211] | − (key: +: at least 80% growth inhibition; −: less than 80% growth inhibition) | − (key: +: at least 80% growth inhibition; −: less than 80% growth inhibition)
29 | COc1ccnc(C(=O)N[C@@H]2OC[C@@H](OC(C)=O)[C@H](OC(C)=O)[C@H]2OC(C)=O)c1O [Compound 330] | − (key: +: at least 80% growth inhibition; −: less than 80% growth inhibition) | − (key: +: at least 80% growth inhibition; −: less than 80% growth inhibition)
30 | COc1ccnc(C(=O)N[C@@H]2CCCC[C@H]2SC)c1O [Compound 273] | − (key: +: at least 80% growth inhibition; −: less than 80% growth inhibition) | − (key: +: at least 80% growth inhibition; −: less than 80% growth inhibition)
31 | COc1ccnc(C(=O)N[C@@H]2OC[C@@H](OCc3ccccc3)[C@H](OCc3ccccc3)[C@H]2OCc2ccccc2)c1O [Compound 332] | − (key: +: at least 80% growth inhibition; −: less than 80% growth inhibition) | − (key: +: at least 80% growth inhibition; −: less than 80% growth inhibition)
32 | COc1ccnc(C(=O)NC2CC(C)(C)C(Cl)C(Cl)[C@H](C)[C@H]2C)c1O (stereo partly shown) [Compound 281] | − (key: +: at least 80% growth inhibition; −: less than 80% growth inhibition) | − (key: +: at least 80% growth inhibition; −: less than 80% growth inhibition)
33 | COc1ccnc(C(=O)NC2CC(C)(C)CC(C)(C)C2)c1O [Compound 250] | − (key: +: at least 80% growth inhibition; −: less than 80% growth inhibition) | − (key: +: at least 80% growth inhibition; −: less than 80% growth inhibition)
34 | COc1ccnc(C(=O)NC2O[C@H](CO)[C@H]3OC(C)(C)O[C@@H]23)c1O (stereo partly shown) [Compound 329] | − (key: +: at least 80% growth inhibition; −: less than 80% growth inhibition) | − (key: +: at least 80% growth inhibition; −: less than 80% growth inhibition)
35 | COc1ccnc(C(=O)N[C@H]2CC(C)(C)[C@H](O)C(C)(C)C2)c1O [Compound 264, trans-4-Hydroxy-3,3,5,5-Tetramethylpicolinamide] | − (key: +: at least 80% growth inhibition; −: less than 80% growth inhibition) | − (key: +: at least 80% growth inhibition; −: less than 80% growth inhibition)
